This note sets out measurements from EP2116236A1, “Bisbenzamidine derivatives for use as antioxidant” (Université de Mons-Hainaut, priority 2008, dated 2009).

Experiment [1] in a line: superoxide dismutase activity: inhibition of pyrogallol auto-oxidation. The experiment is classed as biochemical. The settings on record: for Percent inhibition of the rate of pyrogallol auto-oxidation: compound 0.5 mM, pyrogallol 0.750 mM, TRIS saline buffer pH 7.4, first two minutes, average of three measures. The protocol: The pyrogallol auto-oxidation was measured at 420 nm according to the procedure Marklund & Marklund as reported in Vamecq et al. (2003). The incubation medium comprised TRIS saline buffer at pH 7.4 (5 mM TRIS, 50 mM NaCl) with either the vehicle (DMSO) or one of the compounds (final concentration 0.5 mM ) dissolved in DMSO. The reaction was triggered by the addition of pyrogallol (0.750 mM).
The results are given as percent inhibition of the rate of pyrogallol auto-oxidation measured during the first two minutes.

A further experiment concerns chemical seizure (scPtz). The experiment in a line: subcutaneous pentylenetetrazol (scPtz) induced chemical seizure test. The experiment is classed as in vivo. To be noted: Mus musculus, ip. On the procedure: (§1) The tests were performed in rodents as described in J. Vamecq et al. Eur. J. Neurosc. 2003, 18, 1110. The results are shown in Table 1, wherein ScPtz refers to subcutaneous pentylenetetrazol, MES refers to Maximal Electroshock Seizures, MCS refers to Maximal Clonic Seizures, and ND means "not determined". The results are given as ED50 in mg/kg.

The next experiment has as its system audiogenic seizure. Kind of experiment: audiogenic seizure test in magnesium deficient animals. The experiment is classed as in vivo. On the procedure:
as §1

Experiment [2] is described as follows: glutathione peroxidase activity: stimulation of peroxide-induced oxidation of reduced glutathione. To be noted: for Glutathione peroxidase activity: 2 mM reduced Glutathione; for Effects of the compounds on the oxidation rate (%): average glutathione oxidation rate, vehicle control = 100 %, 2 mM reduced glutathione, 10 µl 50 mM compound in 1 mL, pH 7.4. The format is biochemical. On the procedure: The activity of glutathione peroxidase compounds refers to the stimulation by the compounds of the peroxide-induced oxidation of reduced glutathione (H2O2, t-butyl-hydroperoxide or cumene hydroperoxide). […] The formation of oxidized glutathione results in the oxidation of NADPH in the presence of glutathione reductase. The NADPH oxidation is then measured and reflects the formation of oxidized glutathione. In view of the absorbance of the compounds, NADPH oxidation was measured by the fluorescent emission at 466 nm when excited at 366 nm, which a corrected quenching.
The glutathione oxidation was measured in the presence of NADPH and glutathione reductase in 1 ml cell by fluorimetry (λexcitation = 366 nm and λemission= 466 nm). The cell contained 1 mL of 10 mM phosphate buffer pH 7.4, 0.25 mM NADPH, 10 µl DMSO (or 10 µl 50 mM compound dissolved in DMSO), 2 mM reduced glutathione and two units of glutathione reductase (Saccharomyces cerevisiae). The reaction was triggered by the addition of peroxide (5 mM t-butyl-hydroperoxide). A stimulation of the rate of peroxide-induced oxidation of glutathione was considered as glutathione peroxidase activity.

For experiment [3], the system named is electrical seizure MES (50 Hz). The experiment in a line: Maximal Electroshock Seizures (MES) test. The format is in vivo. To be noted: Mus musculus, ip. On the procedure: as §1
Background: In the maximal electroshock model the usual endpoint is tonic extension of the hind limbs.

The subject of experiment [4] is electrical seizure MCS (6 Hz). The experiment in a line: Maximal Clonic Seizures (MCS) 6 Hz electroshock test. The format is in vivo. The protocol:
as §1

As to `N=C(N)c1ccc(N)cc1` [4-aminobenzaminidine, 4-aminobenzamidine, reference compound], the “Percent inhibition of the rate of pyrogallol auto-oxidation” value (“Percent inhibition” below) in experiment [1] is given as less than 5%. The “scavenging activity toward the superoxide anion” value in experiment [1] (result in words) is given as “does not have any scavenging activity”.

For the molecule `CN(CCN(C)c1ccc(C(=N)N)cc1)c1ccc(C(=N)N)cc1` [Compound 3, 4,4'-[1,2-ethanediyl (N,N'-dimethyl bisnitrilo)]bis(benzenecarboximidamide)], the “Percent inhibition” value in experiment [1] turned out to be 51.0%. In addition, the ED50 (as a rule, the dose that gives a 50% effect, or the effect in half of the subjects) in the experiment with chemical seizure (scPtz) was more than 300 mg/kg. In the experiment on audiogenic seizure, the “audiogenic seizure (mouse ip) ED50” value was “little activity at non toxic doses”. The Glutathione peroxidase activity is reported as 128% in experiment [2] (2.5 mM cumene hydroperoxide), 117% in experiment [2] (2.5 mM hydrogen peroxide), 108% in experiment [2] (5 mM hydrogen peroxide) and 197% in experiment [2] (5 mM t-butyl-hydroperoxide). The “Effects of the compounds on the oxidation rate (%)” value (“Effects of the compounds … (%)” below) in experiment [2] (5 mM t-butyl-hydroperoxide) came to 197%.

Regarding `CCN(CCNc1ccc(C(=N)N)cc1)c1ccc(C(=N)N)cc1` [Compound 5, 4,4'-(N-ethyl-1,2-ethanediyldiimino)bis(benzenecarboximidamide)], the “Percent inhibition” value in experiment [1] was 28.8%. This molecule also gave an ED50 with chemical seizure (scPtz) of more than 30 mg/kg. Moreover, the “audiogenic seizure (mouse ip) ED50” value in the experiment on audiogenic seizure is “little activity at non toxic doses”. The “Effects of the compounds … (%)” value in experiment [2] (5 mM t-butyl-hydroperoxide) was 105%.

For `CN(CCNc1ccc(C(=N)N)cc1)c1ccc(C(=N)N)cc1` [Compound 4, 4,4'-(N-methyl 1,2-ethanediyldiimino)bis(benzenecarboximidamide)], the “Percent inhibition” value in experiment [1] came to 17.5%. Besides, the ED50 (in the experiment with chemical seizure (scPtz); in experiment [3]) was more than 100 mg/kg throughout. In the experiment with audiogenic seizure, the “audiogenic seizure (mouse ip) ED50” value is listed as “little activity at non toxic doses”. Further, the “Effects of the compounds … (%)” value in experiment [2] (5 mM t-butyl-hydroperoxide) was 107%.

With `N=C(N)c1ccc(NCCNc2ccc(C(=N)N)cc2)cc1` [Compound 2, 4,4'-(1,2-ethanediyldiimino)bisbenzenecarboximidamide], the “electrical seizure MCS (6 Hz) (mouse ip) ED50” value in experiment [4] was “ED50 = 48.95 mg/kg”. The ED50 in experiment [4] (Mus musculus, ip) was 60 to 100 mg/kg; with chemical seizure (scPtz), more than 300 mg/kg; in the experiment on audiogenic seizure (mouse ip), 6.9 mg/kg. The “Percent inhibition” value in experiment [1] turned out to be 36.3%. Further, in the experiment with audiogenic seizure, the “audiogenic seizure (mouse ip) ED50” value is reported as “active”. Also, the “Effects of the compounds … (%)” value in experiment [2] (5 mM t-butyl-hydroperoxide) was less than 100%.
